# Data: US11129805B2, “Dual ACE C-domain/NEP inhibitors” (ANGIODESIGN (UK) LIMITED, priority 2016, dated 2021)
# Where two headings read alike, the source gives them in different places.
# Assays:
# [1] = system: hypertensive animal (the high-renin mouse model); details: in vivo; cited from earlier work
# [2] = cited from earlier work; for angioedema frequency: 5,770 patients with heart failure
# [3] = system: 10% human plasma supplemented with rhNEP (ACE and NEP activity); assay: Metabolism of a bradykinin 1-9 spike in human plasma (LC-MS/MS); type: biochemical; details: for initial bradykinin 1-9 spike remaining/recovered following the incubation period: 50 ng/ml BK 1-9 spike, 10% human plasma + rhNEP 200 pg/ml, 37° C.
# Procedure: All samples were spiked with bradykinin 1-9 (BK1-9) at a concentration of 50 ng/ml followed by an incubation period at 37° C. Recombinant human neutral endopeptidase (rhNEP) was added to all samples at a concentration of 200 pg/ml.
# The concentrations of BK 1-9 are relative to the control that was plasma spiked with BK 1-9 following the incubation period (100% spike control).
# Effects on Bradykinin Peptides. The metabolism of a spike of bradykinin 1-9 (50 ng/ml) in 10% human plasma supplemented with 200 pg/ml rhNEP (R&D) in vitro, followed by LC-MS/MS-based quantification of the bradykinin metabolites bradykinin 1-9, 1-8, 1-7, 1-5, and 2-9 was examined. Briefly, samples where stabilized and spiked with 200 pg/ml of stable-isotope-labelled internal standards for bradykinin 1-9, 1-8, 1-7, 1-5, and 2-9. Following C18-based solid-phase-extraction, samples were subjected to LC-MS/MS analysis using a reversed-phase analytical column (Acquity UPLC® C18, Waters) operating in line with a XEVO TQ-S triple quadrupole mass spectrometer (Waters) in MRM mode.
# [4] = system: human plasma supplemented with recombinant human NEP (ACE and NEP activity); assay: RAS equilibrium analysis of angiotensin peptides in human plasma ex vivo (LC-MS/MS); details: human plasma + rhNEP 200 pg/ml
# Procedure: Recombinant human neutral endopeptidase (rhNEP) was added to all samples at a concentration of 200 pg/ml.
# Equilibrium angiotensin peptide levels were measured in plasma samples after incubating Li-Heparin samples supplemented with recombinant human NEP (rhNEP) (R&D, 200 pg/ml) at controlled pH (7.4) for a period of 30 min at 37° C. in the presence and absence of indicated compounds and enzymes. Following equilibration, samples were stabilized and spiked with stable-isotope-labelled internal standards for each angiotensin metabolite, Ang I (Ang 1-10), Ang II (Ang 1-8), Ang 1-7, Ang 1-5, Ang 2-8, Ang 3-8, Ang 2-10, Ang 2-7, Ang 1-9, and Ang 3-7, at a concentration of 200 pg/ml. Following C18-based solid-phase-extraction, samples were subjected to LC-MS/MS analysis using a reversed-phase analytical column (Acquity UPLC® C18, Waters) operating in line with a XEVO TQ-S triple quadrupole mass spectrometer (Waters) in MRM mode.
# [5] = 573 patients with heart failure; cited from earlier work
# [6] = cited from earlier work
# [7] = patients with hypertension, cited from earlier work
# aminopeptidase P = details: cited from earlier work
# ACE C-domain = ACE C-domain (Homo sapiens, UniProt P12821); details: cited from earlier work
# ACE C-domain, sequence (P12821 643-1222 limits assumed): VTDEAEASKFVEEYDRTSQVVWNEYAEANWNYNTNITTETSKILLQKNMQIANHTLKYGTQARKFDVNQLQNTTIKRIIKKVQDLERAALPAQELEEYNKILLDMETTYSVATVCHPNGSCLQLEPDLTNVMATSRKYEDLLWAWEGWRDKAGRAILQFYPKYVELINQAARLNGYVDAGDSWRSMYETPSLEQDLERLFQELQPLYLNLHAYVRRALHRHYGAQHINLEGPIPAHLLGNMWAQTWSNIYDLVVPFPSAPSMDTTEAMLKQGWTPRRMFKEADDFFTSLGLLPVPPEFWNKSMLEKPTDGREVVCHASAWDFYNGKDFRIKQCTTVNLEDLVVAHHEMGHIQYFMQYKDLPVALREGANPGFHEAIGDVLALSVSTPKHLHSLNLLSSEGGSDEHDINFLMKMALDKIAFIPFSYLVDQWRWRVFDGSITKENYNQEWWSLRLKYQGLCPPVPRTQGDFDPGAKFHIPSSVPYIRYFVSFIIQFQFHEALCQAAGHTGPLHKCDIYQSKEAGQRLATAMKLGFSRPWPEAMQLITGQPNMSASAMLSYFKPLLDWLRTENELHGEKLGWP
smiles,measurement,setting,value
NCCCC[C@H](N[C@@H](CCc1ccccc1)C(=O)O)C(=O)N[C@@H](Cc1c[nH]c2ccccc12)C(=O)O [Lis-Trp],Ang II formation,[1],suppression of Ang Il formation
same,blood pressure,[1],reduction in blood pressure equivalent to that achieved with the conventional ACE inhibitor lisinopril
same,plasma BK levels,[1],leaving BK levels unchanged
O=C(N[C@H]1CCS[C@H]2CCC[C@@H](C(=O)O)N2C1=O)[C@@H](S)Cc1ccccc1 [omapatrilat],angioedema frequency,[2],0.8%
same,primary endpoint (all-cause mortality or hospitalization for heart failure),[2]; comparison with enalapril,failed to show superiority
same,initial bradykinin 1-9 spike remaining/recovered following the incubation period,[3],74-85%
same,metabolism of bradykinin,[3]; versus solvent control plasma,decreased metabolism of bradykinin
same,inhibition of equilibrium Ang 1-8 levels (Ang II),"[4]; pH 7.4, 30 min at 37° C.",93.1%
same,levels of Ang 1-7,[4]; sentence follows the rhACE2 discussion,undetectable
same,benefit versus lisinopril,[5],trend toward greater benefit
same,incidence of angioedema,"[6]; 25,302 hypertensive subjects",2.17%
same,incidence of angioedema,[6]; African American patients,5.53%
same,blood pressure reduction,[6]; comparison with enalapril,superior to enalapril in reducing blood pressure
same,reduction in arterial pressure,[7]; versus lisinopril,greater reductions in arterial pressure
same,excretion of ANP,[7],increased the excretion of ANP
same,inhibition of aminopeptidase P,aminopeptidase P,inhibits
CCOC(=O)[C@H](CCc1ccccc1)N[C@@H](C)C(=O)N1CCC[C@H]1C(=O)O [enalapril],angioedema frequency,[2],0.5%
O=C(N[C@@H](Cc1ccccc1)P(=O)(O)C1CCCC1C(=O)N[C@@H](Cc1c[nH]c2ccccc12)C(=O)O)OCc1ccccc1 (some centres unmarked) [RXP A380],C-domain selectivity,ACE C-domain,"~3,000 fold"
NCCCC[C@H](N[C@@H](CCc1ccccc1)C(=O)O)C(=O)N1CCC[C@H]1C(=O)O [lisinopril],initial bradykinin 1-9 spike remaining/recovered following the incubation period,[3],57-70%
same,plasma BK levels,[1],substantial increases in plasma BK levels
